Measured values from patent US20130109726A1, “SUSTAINED-RELEASE THERAPEUTIC AGENT FOR HYPERTENSION AND RENAL DYSFUNCTION” (TEIJIN PHARMA LIMITED, priority 2010, published 2013).

What was measured:
[1] = system: spontaneously hypertensive rats (SHR); experiment: Systolic blood pressure by Tail-Cuff method in spontaneous hypertension model (SHR); type: in vivo, rat
Procedure: The effects of the immediate-release and sustained-release administrations of febuxostat in a spontaneous hypertension model were ascertained. Male spontaneously hypertensive rats (SHR) aged 12 weeks were subjected to quarantine for a week or more before used as subjects. From 13 weeks of age, habituation to blood pressure measurement with a Tail-Cuff sphygmomanometer (BP-2000, Visitech systems, Napa Place, N.C., USA) was performed for two weeks. At 15 weeks of age after the completion of the habituation, blood pressure was measured, and the subjects were divided into three groups (10 subjects in each group), such that the systolic blood pressures were evenly distributed. Subsequently, the administrations were started. Group 1, a control group, was given tap water. Group 2 was given febuxostat in drinking water. Group 3 was given febuxostat by oral gavage.
The administration in drinking water was performed by giving the subjects access to an aqueous solution of febuxostat ad libitum. In this manner, prolonged drug exposure to the blood, i.e, sustained-release administration can be accomplished, as compared to a single oral administration. On the other hand, the oral administration was performed by giving a suspension of febuxostat in 0.5% MC solution (with a concentration of febuxostat of 2 mg/mL) at 5 mL/kg by oral gavage. The blood level of the drug rapidly increases after the administration and diclines soon. Thus, immediate-release administration can be accomplished in this manner. After 18 days of administration, systolic blood pressure was measured by the Tail-Cuff method.

[2] = system: adriamycin-induced nephropathy mouse model; experiment: Urine albumin excretion in adriamycin-induced nephropathy mouse model; type: in vivo
Procedure: The effects of the immediate-release and sustained-release administrations of febuxostat in an adriamycin-induced nephropathy mouse model were ascertained. The adriamycin-induced nephropathy model is known as a renal dysfunction model in which lesions occur in glomerular epithelial cells and proteinuria is observed.
Male BALB/cAnNCrlCrlj mice aged 7 weeks were subjected to quarantine for a week or more before used as subjects.
At 8 weeks of age, a 24-hour urine collection was performed and the concentration of albumin in the collected urine was measured by ELISA. The subjects were divided into three groups, such that the amounts of albumin excretion were evenly distributed. Subsequently, the administrations were started. Group 1, a control group, was given tap water. Group 2 was given febuxostat in drinking water. Group 3 was given febuxostat by oral gavage.
The administration in drinking water was performed by giving the subjects access to an aqueous solution of febuxostat ad libitum. In this manner, prolonged drug exposure, i.e, sustained-release administration can be accomplished, as compared to a single oral administration. On the other hand, the oral administration was performed by giving a suspension of febuxostat in 0.5% MC solution by oral gavage via a tube. The blood level of the drug rapidly increases after the administration and diclines soon. Thus, immediate-release administration can be accomplished in this manner. Following the initiation of dosing on the first day, adriamycin was given to mice via tail vein at 10 mg/kg. Then, the administrations were conducted for 5 consecutive days. A 24-hour urine collection was performed 5 days after onset of drug administration and the amount of albumin in the collected urine was measured as previously described.

## Cc1nc(-c2ccc(OCC(C)C)c(C#N)c2)sc1C(=O)O [febuxostat, 2-(3-cyano-4-isobutyloxyphenyl)-4-methyl-5-thiazole carboxylic acid]
[1]; Group 2, sustained-release administration, 1.5 mg/kg/day in drinking water, Day 18 of dosing
  systolic blood pressure (mean±standard error): 199 ± 3 mmHg
[1]; Group 2, sustained-release administration, 1.5 mg/kg/day in drinking water, Pre-dose
  systolic blood pressure (mean±standard error): 203 ± 3 mmHg
[1]; Group 3, immediate-release administration, 10 mg/kg/day oral gavage, Day 18 of dosing
  systolic blood pressure (mean±standard error): 217 ± 3 mmHg
[1]; Group 3, immediate-release administration, 10 mg/kg/day oral gavage, Pre-dose
  systolic blood pressure (mean±standard error): 201 ± 4 mmHg
[1]; SHR, 18 days of administration
  blood pressure lowering, sustained-release versus immediate-release administration: blood pressure was more strongly lowered by administering febuxostat in a sustained-release manner
[2]; Group 2, sustained-release administration, 3 mg/kg/day in drinking water, Day 0
  Urine albumin excretion (mean±standard error): 0.1 ± 0.1 mg/day
[2]; Group 2, sustained-release administration, 3 mg/kg/day in drinking water, Day 5, adriamycin 10 mg/kg i.v.
  Urine albumin excretion (mean±standard error): 9.5 ± 3.9 mg/day
[2]; Group 3, immediate-release administration, 3 mg/kg/day oral gavage, Day 0
  Urine albumin excretion (mean±standard error): 0.1 ± 0.1 mg/day
[2]; Group 3, immediate-release administration, 3 mg/kg/day oral gavage, Day 5, adriamycin 10 mg/kg i.v.
  Urine albumin excretion (mean±standard error): 18.4 ± 9.7 mg/day
[2]; adriamycin-induced nephropathy mice, 5 days of administration
  amelioration of renal dysfunction, sustained-release versus immediate-release administration: renal dysfunction was more effectively ameliorated by administering febuxostat in a sustained-manner
